From patent US8568736B2, “Polypeptide derivatives of parathyroid hormone (PTH)” (The General Hospital Corporation, priority 1999, dated 2013)
Values joined by “and” are separate entries in the source; they are usually repeats but may differ in a detail not shown here. Equal entries are not always repeated. Where two headings read alike, the source gives them in different places. No end group written: not given here.

What was measured:
[1] = target: T1, truncated human PTH-1 receptor, hΔNt (Homo sapiens, UniProt Q03431); assay: cAMP stimulation in COS-7 cells transiently transfected with truncated receptor hDeINt; format: cell-based; details: for Emax: hDeINt, Emax constrained to peptide #7 (20 μM) response
T1 construct: expressed in transfected cells; host or cells: COS-7, transient, pcDNA-1 plasmid derived from HK-WT
T1 sequence (Q03431 with tags, fused parts or gaps limits assumed): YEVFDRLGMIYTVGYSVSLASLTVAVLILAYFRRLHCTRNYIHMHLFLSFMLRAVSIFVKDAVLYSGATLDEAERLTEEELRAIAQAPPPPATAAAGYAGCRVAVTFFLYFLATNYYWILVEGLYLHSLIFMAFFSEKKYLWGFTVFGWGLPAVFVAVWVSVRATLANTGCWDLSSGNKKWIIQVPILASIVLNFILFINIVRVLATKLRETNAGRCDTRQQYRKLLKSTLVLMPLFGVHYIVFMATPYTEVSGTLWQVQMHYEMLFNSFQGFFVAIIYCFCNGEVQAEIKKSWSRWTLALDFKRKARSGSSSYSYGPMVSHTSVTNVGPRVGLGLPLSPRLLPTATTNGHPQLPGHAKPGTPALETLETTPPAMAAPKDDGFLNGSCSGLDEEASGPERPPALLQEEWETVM
Protocol: COS-7 cells were transfected in 24-well plates when the cells were 85 to 95% of confluency using 200 ng of plasmid DNA that was purified by cesium chloride/ethidium bromide gradient centrifugation for each well. Assays were conducted 72 to 96 hours after transfection.
Stimulation of cells with peptide analogs was performed in 24-well plates. Cells were rinsed with 0.5 mL of binding buffer and treated with 200 μL of cAMP assay buffer (Dulbecco's modified Eagle's medium containing 2 mM 3-isobutyl-1-methylxanthine, 1 mg/mL bovine serum albumin, 35 mM Hepes-NaOH, pH 7.4) and 100 μL of binding buffer containing varying amounts of peptide analog (final volume=300 μL). The medium was removed after incubation for 1 h at room temperature, and the cells were frozen (−80° C.), lysed with 0.5 mL 50 mM HCl, and refrozen (−80° C.). The cAMP content of the diluted lysate was determined by radioimmunoassay. Where possible, cAMP EC50 and Maximum response values were determined using nonlinear regression (see below).
All calculations were performed using Microsoft Excel. Nonlinear regression analysis of cAMP stimulation data was performed using parameters, defined as the Minimum, Maximum, Emax, midpoint (EC50), and slope of the response curve. The predicted response (yp) for a given dose (x) of peptide was calculated using the following equation: yp=Min+[(Max−Min)/(1+(EC50/x)^slope)]. […] The statistical significance between two data sets was determined using a one-tailed Student's t-test, assuming unequal variances for the two sets.

PTH-1 receptor = target: T2, PTH-1 receptor (Homo sapiens, UniProt Q03431); assay: Competition binding with 125I-rPTH(1-34) in HKRK-B7 cells; set-up: expressed in transfected cells; host or cells: LLC-PK1 porcine kidney cells, clone HKRK-B7; details: 125I-rPTH(1-34) tracer
T2 sequence (Q03431 27-593): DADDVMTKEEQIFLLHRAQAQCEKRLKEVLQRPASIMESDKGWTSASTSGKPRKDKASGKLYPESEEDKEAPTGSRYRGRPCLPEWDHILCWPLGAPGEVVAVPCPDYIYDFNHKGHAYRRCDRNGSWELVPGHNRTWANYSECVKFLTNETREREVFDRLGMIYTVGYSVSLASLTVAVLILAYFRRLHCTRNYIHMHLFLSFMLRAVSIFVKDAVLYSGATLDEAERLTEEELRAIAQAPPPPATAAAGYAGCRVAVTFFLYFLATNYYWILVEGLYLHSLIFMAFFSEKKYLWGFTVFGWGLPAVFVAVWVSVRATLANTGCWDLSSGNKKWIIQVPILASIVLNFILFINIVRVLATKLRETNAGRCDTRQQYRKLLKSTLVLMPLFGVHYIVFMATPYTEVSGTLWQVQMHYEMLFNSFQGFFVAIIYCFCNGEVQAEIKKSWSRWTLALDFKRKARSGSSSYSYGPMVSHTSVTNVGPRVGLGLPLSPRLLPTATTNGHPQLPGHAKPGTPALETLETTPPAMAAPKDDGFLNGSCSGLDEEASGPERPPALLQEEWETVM
Protocol: Binding reactions were performed with stably transfected HKRK-B7 cells in 24-well plates. Cells were rinsed with 0.5 mL of binding buffer (50 mM Tris-HCl, 100 mM NaCl, 5 mM KCl, 2 mM CaCl2, 5% heat-inactivated horse serum, 0.5% fetal bovine serum, adjusted to pH 7.7 with HCl), and treated successively with 100 μL binding buffer, 100 μL of binding buffer containing various amounts of unlabeled competitor ligand, and 100 μL of binding buffer containing ca. 100,000 cpm of ^125I-rPTH(1-34) (ca. 26 fmol). Incubations (final volume=300 μL) were at 15° C. for 4 h. Cells were then placed on ice, the binding medium was removed, and the monolayer was rinsed three times with 0.5 mL of cold binding buffer. The cells were subsequently lysed with 0.5 mL 5N NaOH and counted for radioactivity. The nonspecific binding for each experiment was determined by competition with a 1 μM dose of unlabeled rPTH(1-34). The maximum specific binding (B0) was the total radioactivity bound in the absence of unlabeled PTH ligand, corrected for nonspecific binding. Binding IC50 values were determined using nonlinear regression (see below).
All calculations were performed using Microsoft Excel. […] The predicted response (yp) for a given dose (x) of peptide was calculated using the following equation: yp=Min+[(Max−Min)/(1+(EC50/x)^slope)]. […]

[2] = system: truncated PTH-1 receptor rP1R-ΔNt; assay: cAMP with truncated rat PTH-1 receptor lacking the N-terminal extracellular domain (rP1R-ΔNt); format: cell-based; details: COS-7 cells expressing rP1R-ΔNt
PTH-1 receptors = details: cells expressing (high levels of) PTH-1 receptors; Luck et al. 1999; read-out: EC50 adenyl cyclase/cAMP; cited from earlier work
[3] = system: truncated PTH-1 receptor rP1R-ΔNt; details: Luck et al. 1999; cited from earlier work
[4] = COS-7 cells, hDeINt truncated receptor, cAMP, read-out: EC50

Row | Molecule | EC50 [1, 4] [µM] | Emax ([1]; COS-7 cells) [picomole/well] | further results
1 | AVAEIQLMHARAKH-NH2 [Peptide #1, AlaValAlaGluIleGlnLeuMetHisAlaArgAlaLysHis-amide] | 2.37 ± 1.06 | 250 ± 61 | fold more potent than native PTH(1-14) ([1]; truncated hPTH-1 receptor lacking most of the amino-terminal domain): 100 fold
2 | AVAEIQLMHARAKHLNSMERVEWLRKKLQDVHNY-NH2 [Peptide #7] | – | 251 ± 39 | EC50 [1]: 0.28 ± 0.16 µM; potency relative to rPTH(1-34) or hPTH(1-34) (in words) ([1]; COS-7 cells expressing hΔNt): dramatically more potent; improvement in binding affinity as compared to rPTH(1-34) (PTH-1 receptor): about 2 fold
3 | CCCC[C@H](NC(=O)[C@H](CCCNC(=N)N)NC(=O)[C@H](CCC(=O)O)NC(=O)[C@@H](NC(=O)[C@H](CO)NC(=O)[C@H](C)NC(=O)[C@H](CC(C)C)NC(=O)[C@H](Cc1c[nH]cn1)NC(=O)[C@H](CCCCN)NC(=O)CNC(=O)[C@H](CC(C)C)NC(=O)[C@H](CC(N)=O)NC(=O)[C@H](Cc1c[nH]cn1)NC(=O)[C@H](CCCC)NC(=O)[C@H](CC(C)C)NC(=O)[C@H](CCC(N)=O)NC(=O)[C@@H](NC(=O)[C@H](CCC(=O)O)NC(=O)[C@H](CO)NC(=O)[C@@H](NC(=O)[C@H](C)N)C(C)C)[C@@H](C)CC)C(C)C)C(=O)N[C@@H](CCC(N)=O)C(=O)N[C@@H](Cc1c[nH]c2ccccc12)C(=O)N[C@@H](CC(C)C)C(=O)N[C@@H](CCCNC(=N)N)C(=O)N[C@@H](CCCCN)C(=O)N[C@@H](CCCCN)C(=O)N[C@@H](CC(C)C)C(=O)N[C@@H](CCC(N)=O)C(=O)N[C@@H](CC(=O)O)C(=O)N[C@H](C(=O)N[C@@H](Cc1c[nH]cn1)C(=O)N[C@@H](CC(N)=O)C(=O)N[C@@H](Cc1ccc(O)cc1)C(N)=O)C(C)C [[Nle8, 21, Y34]rPTH(1-34), [Nle^8,21,Tyr^34]-rPTH(1-34)NH2, reference compound] | – | 243 ± 63 | –
4 | AVAEIQLMHAR-NH2 [compound 6, AlaValAlaGluIleGlnLeuMetHisAlaArg-amide] | 27 ± 12.9 | 243 ± 63 | –
5 | AVSEIQLMHNLGKH-NH2 [native rPTH(1-14), AVSEIQLMHNLGKH, reference compound] | 313 ± 121 | 222 ± 31 | cAMP formation with rP1R-ΔNt (in words) [2]: stimulated cAMP formation; EC50 (PTH-1 receptors): ~100 µM and 100 µM; potency with truncated vs intact rPTH-1 receptor (in words) [3]: as potent
